Measurements published in US20230321171A1, “ANTI-COCCIDIAL COMPOSITION COMPRISING MANGOSTEEN AND USES THEREOF” (CJ CHEILJEDANG CORPORATION, priority 2020, published 2023).

Experiments:
Eimeria acervulina = experiment: Protozoan (sporozoite) direct killing ability, Eimeria acervulina; type: cell-based; details: for Eimeria acervulina protozoal death rate (%): compared to PBS-treated negative control group; for Minimum concentration for killing 100% protozoa (ppm), Eimeria acervulina: tested 1 to 500 ppm
Protocol: In the present example, protozoan (sporozoite) direct killing ability evaluation was conducted against 3 representative Eimeria kinds known to be infected in most farms (E. tenella, E. acervulina, E. maxima).
A certain amount of oocysts of each protozoan was put in a tube containing glass beads and pulverized, and then to remove the crushed oocyst cell wall and other debris, internal sporocysts were purified using the percoll density gradient, and washed with PBS solution. A reagent comprising sodium taurocholic acid (Sigma aldrich, USA) and trypsin (Gibco, USA), respectively, was treated to sporocysts of Eimeria tenella, Eimeria acervulina and Eimeria maxima for excystation and they were incubated, and then they were washed with PBS solution once and protozoa were obtained.
After reacting the mangosteen pericarp extract, epicatechin, alpha-mangostin, xanthone and anticoccidial agents, salinomycin and diclazuril (hereinafter, material) with 3 kinds of Eimeria protozoa at various concentrations of 1 to 500 ppm, respectively, only alive protozoa (sporozoites) were counted through microscopic observation. Then, the death rate (%) of the protozoa when each material was treated compared to the PBS-treated negative control group was calculated and shown in Table 8 to Table 10 and Table 12, respectively, and the minimum concentration which directly killed the protozoa by 100% was shown in Table 11 below.

[1] = system: MDBK(Madin-Darby Bovine Kidney Epithelial Cells); experiment: Cytotoxicity, MTS analysis, MDBK; details: 3.1~500 ppm/well, 14 hours + 2 hours MTS, vs 5% DMSO treatment group
From the text: In the present example, using MTS analysis method (3-(4,5-[…])-5-(3-carboxymethoxyphenyl)-2-(4-sulfophenyl)-2H-tetrazolium, promega, USA), an effect on survival of cells of the mangosteen extract was investigated.
The cell lines utilized in cytotoxicity evaluation were (1) MDBK(Madin-Darby Bovine Kidney Epithelial Cells) and (2) RAW264.7(Mouse macrophage cell), and all of them were purchased from ATCC and used.
Each cell was aliquoted at a concentration of 1×10^5 cell/well in a 96-well cell culture plate, and cultured at 37° C. for 24 hours, and then each material (mangosteen extract, xanthone, alpha-mangostin and epicatechin) was treated by concentration (3.1˜500 ppm/well) and cultured at a temperature of 37° C.

[2] = Broiler growth effect (daily weight gain) due to intake in feed; type: in vivo, Ross broilers; details: for End body weight: non-infected broilers
Protocol: An efficacy evaluation test was performed in an animal experiment facility in Gyeongsangnam-do, South Korea. One-day-old female Ross broilers were individually weighed and randomly divided into groups to use in an experiment. Matters and conditions for experimental design were described in Table 16.
A breeding farm was managed according to the Korean poultry breeding management guidelines. Cages and the breeding farm were cleaned and disinfected before starting the test. The temperature of […] and the humidity of 40 to 50% of the breeding farm were maintained, and it was continuously monitored.
For the feed, Korea Feed A1-choi product was used, and each material (salinomycin (Cheil Bio Cheilsalino-60 product), xanthone (Sigma Aldrich X600 product), and the mangosteen extract prepared in Example 1-2 above) was added to the feed, respectively, at a concentration described in Table 17 below to be self-mixed. Antibiotics and supplements were not used in general feed and mixed feed, and no anticoccidial agent other than each material was added. Broilers were fed ad libitum throughout the experiment period. After putting 20 1-day-age broilers in cages randomly placed for each of the control group or test group and breeding, general feed was fed for 7 days, and then the mixed feed prepared above was ingested by dividing by control group or test group. The feed formulation administered to the control group (negative control group or positive control group) and test group was described in Table 17 below.
The body weight before feeding and on the 7th day after feeding the feed of Table 16 above into individuals was measured, and the difference was divided by the number of days to calculate the daily weight gain (ADG, g/d), and the result was shown in Table 18. For comparison between 6 treatment groups, Duncan post-test multiple comparison method was used, and statistical significance was verified using a SAS statistical program, and the result was shown in Table 18.

[3] = formulated feed 125 ppm for 7 days
[4] = formulated feed 250 ppm for 7 days

With `O=c1c2ccccc2oc2ccccc12` [Xanthone, xanthone] the “Eimeria acervulina protozoal death rate (%)” value (Eimeria acervulina; 1 ppm) was 0%, the “Eimeria acervulina protozoal death rate (%)” value (Eimeria acervulina; 5 ppm) was 0% and the “Eimeria acervulina protozoal death rate (%)” value (Eimeria acervulina; 10 ppm) was 0%. For the same molecule, the “Eimeria acervulina protozoal death rate (%)” value (Eimeria acervulina; 50 ppm) was 0%, the “Eimeria acervulina protozoal death rate (%)” value (Eimeria acervulina; 100 ppm) was 0% and the “Eimeria acervulina protozoal death rate (%)” value (Eimeria acervulina; 125 ppm) was 0%. The “Eimeria acervulina protozoal death rate (%)” value (Eimeria acervulina; 250 ppm) was 11%, the “Eimeria acervulina protozoal death rate (%)” value (Eimeria acervulina; 500 ppm) was 25% and the “Minimum concentration for killing 100% protozoa (ppm), Eimeria acervulina” value (Eimeria acervulina) was >500 ppm. The “Minimum concentration for killing 100% protozoa (ppm), Eimeria acervulina” value (Eimeria acervulina; listed as xanthone) was > 500 ppm, the “Minimum concentrataion of cytotoxicity at which cells of 50% or more survive (ppm)” value [1] was ≥62.5 ppm and the “Daily weight gain compared to the negative control group, in words” value ([2]; Table 18, Duncan p < 0.05, mangosteen extract also vs positive control and xanthone groups) was “rather reduced”. The “Daily weight gain (ADG)” value [2, 3] was 43.86 g/day, the “End-initial body weight (7 days, g)” value [2, 3] was 307 g and the “End body weight” value [2, 3] was 509 g. The “Daily weight gain (ADG)” value [2, 4] was 40.57 g/day, the “End-initial body weight (7 days, g)” value [2, 4] was 284 g and the “End body weight” value [2, 4] was 485 g.
